The target of assay [1] is T1, human CB2 receptors (Homo sapiens, UniProt P34972).
T1 construct: expressed in transfected cells; host or cells: HEK293
Put plainly: human CB2 radioligand binding assay ([3H]CP-55,940 competition).

For assay [2], the target named is T2, rat CB2 (Rattus norvegicus, UniProt Q9QZN9).
T2 sequence (Q9QZN9 1-360): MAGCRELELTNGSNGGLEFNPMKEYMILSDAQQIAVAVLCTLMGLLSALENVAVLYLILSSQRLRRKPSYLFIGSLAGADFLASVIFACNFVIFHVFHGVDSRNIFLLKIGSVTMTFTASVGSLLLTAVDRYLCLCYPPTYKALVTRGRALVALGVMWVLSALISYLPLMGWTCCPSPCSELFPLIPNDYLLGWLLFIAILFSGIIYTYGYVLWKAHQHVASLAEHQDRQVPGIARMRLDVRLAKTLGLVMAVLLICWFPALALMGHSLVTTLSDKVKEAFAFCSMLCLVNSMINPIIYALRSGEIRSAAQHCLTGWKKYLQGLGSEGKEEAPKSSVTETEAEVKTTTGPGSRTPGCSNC
Put plainly: rat CB2 radioligand binding assay ([3H]CP-55,940 competition). More on the design: expressed in transfected cells; host or cells: HEK293.

The mark [3] stands for this setting: HEK293 membranes, 0.5 nM [3H]CP-55,940, read-out: human CB2 (Ki).
Where [4] appears, read: HEK293 membranes, 0.5 nM [3H]CP-55,940, read-out: rat CB2 (Ki).

In patent publication US8501794B2, “Compounds as cannabinoid receptor ligands” (priority 2007, dated 2013) one finds Ki data, which are given here for 24 compounds.

pKi: −log10 of the molar value. Where two headings read alike, the source gives them in different places.

T1 sequence (P34972 whole entry): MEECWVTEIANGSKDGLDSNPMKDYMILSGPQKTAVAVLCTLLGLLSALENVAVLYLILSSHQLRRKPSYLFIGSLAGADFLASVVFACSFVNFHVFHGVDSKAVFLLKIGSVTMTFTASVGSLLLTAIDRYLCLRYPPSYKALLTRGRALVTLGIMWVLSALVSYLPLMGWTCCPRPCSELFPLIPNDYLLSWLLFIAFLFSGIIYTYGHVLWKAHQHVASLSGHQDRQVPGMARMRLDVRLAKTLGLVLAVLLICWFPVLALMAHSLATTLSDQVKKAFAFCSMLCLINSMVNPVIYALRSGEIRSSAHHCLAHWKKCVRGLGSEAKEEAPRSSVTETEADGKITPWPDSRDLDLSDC

Consider `CCCCc1cn(C(C)(C)C)s/c1=N\C(=O)[C@@]1(C)CC[C@@H](C(=O)NC2CCC2)C1(C)C` [Example 225, (1S,3R)—N^1-[(5Z)-4-butyl-2-tert-butylisothiazol-5(2H)-ylidene]-N^3-cyclobutyl-1,2,2-trimethylcyclopentane-1,3-dicarboxamide], for which the negative logarithm of the Ki (pKi) in assay [1] (setting [3]) is 6.54; in assay [2] (setting [4]), 6.37.

Regarding `CCCCc1cn(C(C)(C)C)s/c1=N\C(=O)[C@]1(C)CC[C@H](C(=O)NC[C@@H]2CCCO2)C1(C)C` [Example 226, (1R,3S)—N^1-[(5Z)-4-butyl-2-tert-butylisothiazol-5(2H)-ylidene]-1,2,2-trimethyl-N^3-[(2S)-tetrahydrofuran-2-ylmethyl]cyclopentane-1,3-dicarboxamide], the figures for the pKi in assay [1] and in assay [2] were 6.60 and 6.88, respectively.

As for `CCCCc1cn(C(C)(C)C)s/c1=N\C(=O)[C@@]1(C)CC[C@@H](C2=NCCO2)C1(C)C` [Example 231, (1S,3R)—N-[(5Z)-4-butyl-2-tert-butylisothiazol-5(2H)-ylidene]-3-(4,5-dihydro-1,3-oxazol-2-yl)-1,2,2-trimethylcyclopentanecarboxamide], the pKi in assay [1] was 7.29; in assay [2] it was 7.96.

Take `CCCCc1cn(C(C)(C)C)s/c1=N\C(=O)[C@H]1CC[C@@](C)(C2=NCCO2)C1(C)C` [Example 232, (1S,3R)—N-[(5Z)-4-butyl-2-tert-butylisothiazol-5(2H)-ylidene]-3-(4,5-dihydro-1,3-oxazol-2-yl)-2,2,3-trimethylcyclopentanecarboxamide]: the figures for the pKi in assay [1] and in assay [2] were 7.35 and 7.74, respectively.

Take `CCCCc1cn(C(C)(C)C)s/c1=N\C(=O)[C@]1(C)CC[C@H](C(=O)NCc2ccccn2)C1(C)C` [Example 234, (1R,3S)—N^1-[(5Z)-4-butyl-2-tert-butylisothiazol-5(2H)-ylidene]-1,2,2-trimethyl-N^3-(pyridin-2-ylmethyl)cyclopentane-1,3-dicarboxamide]: the values for the negative logarithm of the Ki (pKi) in assay [1] (setting [3]) and in assay [2] (setting [4]) were 6.49 and 6.85, respectively.

As for `CCCCc1cn(C(C)(C)C)s/c1=N\C(=O)[C@]1(C)CC[C@H](C(=O)NCc2cccnc2)C1(C)C` [Example 235, (1R,3S)—N^1-[(5Z)-4-butyl-2-tert-butylisothiazol-5(2H)-ylidene]-1,2,2-trimethyl-N^3-(pyridin-3-ylmethyl)cyclopentane-1,3-dicarboxamide], the negative-log Ki (pKi) in assay [1] (setting [3]) is 6.49; in assay [2] (setting [4]) it was 6.59.

Consider `C#CCNC(=O)[C@H]1CC[C@@](C)(C(=O)/N=c2\sn(C(C)(C)C)cc2CCCC)C1(C)C` [Example 237, (1R,3S)—N^1-[(5Z)-4-butyl-2-tert-butylisothiazol-5(2H)-ylidene]-1,2,2-trimethyl-N^3-prop-2-ynylcyclopentane-1,3-dicarboxamide], for which the negative logarithm of the Ki (pKi) in assay [1] was 7.64; in assay [2], 7.74.

As for `CCCCc1cn(C(C)(C)C)s/c1=N\C(=O)[C@]1(C)CC[C@H](C(=O)NCC(F)(F)F)C1(C)C` [Example 238, (1R,3S)—N^1-[(5Z)-4-butyl-2-tert-butylisothiazol-5(2H)-ylidene]-1,2,2-trimethyl-N^3-(2,2,2-trifluoroethyl)cyclopentane-1,3-dicarboxamide], the negative-log Ki (pKi) in assay [1] is 7.64; in assay [2], 7.85.

Consider `C#CCNC(=O)[C@@H]1CC[C@](C)(C(=O)/N=c2\sn(C(C)(C)C)cc2CCCC)C1(C)C` [Example 239, (1S,3R)—N^1-[(5Z)-4-butyl-2-tert-butylisothiazol-5(2H)-ylidene]-1,2,2-trimethyl-N^3-prop-2-ynylcyclopentane-1,3-dicarboxamide], for which the pKi in assay [1] is 7.14; in assay [2] it was 7.15.

Consider `CCCCc1cn(C(C)(C)C)s/c1=N\C(=O)[C@]1(C)CC[C@H](C(=O)N(C)OC)C1(C)C` [Example 241, (1R,3S)—N^1-[(5Z)-4-butyl-2-tert-butylisothiazol-5(2H)-ylidene]-N^3-methoxy-N^3,1,2,2-tetramethylcyclopentane-1,3-dicarboxamide], for which the pKi is 7.70 in assay [1] and 7.62 in assay [2].

Consider `CCCCc1cn(C(C)(C)C)s/c1=N\C(=O)[C@]1(C)CC[C@H](C2=NCCCO2)C1(C)C` [Example 243, (1R,3S)—N-[(5Z)-4-butyl-2-tert-butylisothiazol-5(2H)-ylidene]-3-(5,6-dihydro-4H-1,3-oxazin-2-yl)-1,2,2-trimethylcyclopentanecarboxamide], for which the pKi in assay [1] is 7.39; in assay [2], 7.85.

Regarding `CCCCc1cn(C(C)(C)C)s/c1=N\C(=O)[C@]1(C)CC[C@H](NC(=O)N2CCCC2)C1(C)C` [Example 244, N-[(1S,3R)-3-({[(5Z)-4-butyl-2-tert-butylisothiazol-5(2H)-ylidene]amino}carbonyl)-2,2,3-trimethylcyclopentyl]pyrrolidine-1-carboxamide], the negative logarithm of the Ki (pKi) in assay [1] is 7.38; in assay [2] (setting [4]), 6.82.

`CCCCc1cn(C(C)(C)C)s/c1=N\C(=O)[C@@H]1CC[C@](C)(NC(N)=O)C1(C)C` [Example 246, (1R,3S)-3-[(aminocarbonyl)amino]-N-[(5Z)-4-butyl-2-tert-butylisothiazol-5(2H)-ylidene]-2,2,3-trimethylcyclopentanecarboxamide]: the pKi was 6.82 in assay [1] (setting [3]) and 7.42 in assay [2].

For `CCCCc1cn(C(C)(C)C)s/c1=N\C(=O)[C@@H]1CC[C@](C)(NC(=O)NC)C1(C)C` [Example 247, (1R,3S)—N-[(5Z)-4-butyl-2-tert-butylisothiazol-5(2H)-ylidene]-2,2,3-trimethyl-3-{[(methylamino)carbonyl]amino}cyclopentanecarboxamide], the negative logarithm of the Ki (pKi) is 7.39 in assay [1] and 7.40 in assay [2].

Turning to `CCCCc1cn(C(C)(C)C)s/c1=N\C(=O)[C@]1(C)CC[C@H](C(=O)NN2CCCC2)C1(C)C` [Example 249, (1R,3S)—N^1-[(5Z)-4-butyl-2-tert-butylisothiazol-5(2H)-ylidene]-1,2,2-trimethyl-N^3-pyrrolidin-1-ylcyclopentane-1,3-dicarboxamide], the negative logarithm of the Ki (pKi) is 6.96 in assay [1] (setting [3]) and 6.49 in assay [2] (setting [4]).

Turning to `CCCCc1cn(C(C)(C)C)s/c1=N\C(=O)[C@]1(C)CC[C@H](NC(=O)N2CCOCC2)C1(C)C` [Example 250, N-[(1S,3R)-3-({[(5Z)-4-butyl-2-tert-butylisothiazol-5(2H)-ylidene]amino}carbonyl)-2,2,3-trimethylcyclopentyl]morpholine-4-carboxamide], the negative logarithm of the Ki (pKi) in assay [1] is 7.32; in assay [2], 7.12.

As to `CCCCc1cn(C(C)(C)C)s/c1=N\C(=O)[C@]1(C)CC[C@H](NC(=O)c2ccccc2)C1(C)C` [Example 251, N-[(1S,3R)-3-({[(5Z)-4-butyl-2-tert-butylisothiazol-5(2H)-ylidene]amino}carbonyl)-2,2,3-trimethylcyclopentyl]benzamide], the negative-log Ki (pKi) in assay [1] and in assay [2] was 7.22 each time.

In the case of `CCCCc1cn(C(C)(C)C)s/c1=N\C(=O)[C@]1(C)CC[C@H](NC(=O)NC)C1(C)C` [Example 252, (1R,3S)—N-[(5Z)-4-butyl-2-tert-butylisothiazol-5(2H)-ylidene]-1,2,2-trimethyl-3-{[(methylamino)carbonyl]amino}cyclopentanecarboxamide], the pKi was 8.21 in assay [1] and 7.73 in assay [2].

Turning to `CCCCc1cn(C(C)(C)C)s/c1=N\C(=O)[C@@]1(C)CC[C@@H](NC(N)=O)C1(C)C` [Example 253, (1S,3R)-3-[(aminocarbonyl)amino]-N-[(5Z)-4-butyl-2-tert-butylisothiazol-5(2H)-ylidene]-1,2,2-trimethylcyclopentanecarboxamide], the negative logarithm of the Ki (pKi) in assay [1] is 6.80; in assay [2], 7.35.

Regarding `CCCCc1cn(C(C)(C)C)s/c1=N\C(=O)[C@@]1(C)CC[C@@H](NC(=O)NC)C1(C)C` [Example 254, (1S,3R)—N-[(5Z)-4-butyl-2-tert-butylisothiazol-5(2H)-ylidene]-1,2,2-trimethyl-3-{[(methylamino)carbonyl]amino}cyclopentanecarboxamide], the negative logarithm of the Ki (pKi) in assay [1] was 7.08; in assay [2] (setting [4]), 6.97.

As to `CCCCc1cn(C(C)(C)C)s/c1=N\C(=O)[C@@]1(C)CC[C@@H](NC(=O)c2ccccc2)C1(C)C` [Example 255, N-[(1R,3S)-3-({[(5Z)-4-butyl-2-tert-butylisothiazol-5(2H)-ylidene]amino}carbonyl)-2,2,3-trimethylcyclopentyl]benzamide], the figures for the pKi in assay [1] and in assay [2] were 7.60 and 7.16, respectively.

On to `CCCCc1cn(C(C)(C)C)s/c1=N\C(=O)[C@]1(C)CC[C@H](NC(C)=O)C1(C)C` [Example 256, (1R,3S)-3-(acetylamino)-N-[(5Z)-4-butyl-2-tert-butylisothiazol-5(2H)-ylidene]-1,2,2-trimethylcyclopentanecarboxamide], for which the pKi in assay [1] is 7.72; in assay [2] it was 7.55.

Turning to `CCCCc1cn(C(C)(C)C)s/c1=N\C(=O)[C@]1(C)CC[C@H](NC(=O)N2CC(O)C2)C1(C)C` [Example 260, N-[(1S,3R)-3-({[(5Z)-4-butyl-2-tert-butylisothiazol-5(2H)-ylidene]amino}carbonyl)-2,2,3-trimethylcyclopentyl]-3-hydroxyazetidine-1-carboxamide], the negative-log Ki (pKi) in assay [1] (setting [3]) was 6.72; in assay [2] (setting [4]) it was 6.44.

For `CCCCc1cn(C(C)(C)C)s/c1=N\C(=O)[C@]1(C)CC[C@H](NC(=O)N2CC(F)(F)C2)C1(C)C` [Example 261, N-[(1S,3R)-3-({[(5Z)-4-butyl-2-tert-butylisothiazol-5(2H)-ylidene]amino}carbonyl)-2,2,3-trimethylcyclopentyl]-3,3-difluoroazetidine-1-carboxamide], the pKi is 7.27 in assay [1] and 7.36 in assay [2].

The term pKi denotes the Ki on a negative log10 scale, so that one unit is a factor of ten.
